Literature values as cited in US20190208766A1, “COMPOSITION FOR THE CONSERVATION/FIXATION OF BIOLOGICAL MATERIAL” (priority 2016, published 2019).

System: airways
Settings: in vivo

C=O [formaldehyde]
concentration causing sense of suffocation: greater than 10 ppm | exposure that can lead to pulmonary edema: greater than 20 ppm
